{"source": "patent EP0103381B1", "about": "“Substituted anthra(1,9-cd)pyrazol-6(2H)-ones” (WARNER-LAMBERT COMPANY, priority 1982, dated 1984)", "key": {"[1]": {"system": "HCT-8 (human colon adenocarcinoma) cells", "assay": "in vitro activity against human colon adenocarcinoma (HCT-8), cell count", "assay_type": "cell-based", "details": "HCT-8 human colon adenocarcinoma cells, 60-65 hrs incubation with compound, Coulter counter cell count as percentage of controls; read-out: ID50 (the source's name)", "method": "HCT-8 (human colon adenocarcinoma) cells are trypsinized using Trypsin-EDTA. A single cell suspension is achieved by passing the cells through a 26 gauge needle with a 20 cc syringe. A cell suspension is prepared using RPMI 1640 growth medium (available from Gibco Laboratories) +10% fetal calf serum +50 µg/ml garamycin with a cell concentration of approximately 30,000 cells/ml. The cell suspension is dispensed in Linbro 24-well plates; 1 ml/well. The plates are incubated for approximately 48 hrs at 37°C in a 5% C02 atmosphere. At this time test compounds are added in the appropriate concentration. Five µl of the 200 µg/ml stock solution is added to each well in a primary test. Ten pl of the appropriate dilution is added to each well for a titration test. The plates are reincubated an additional 60-65 hrs at 37°C in a 5% C02 atmosphere. The test is read by lysing the cells using a mix of cationic surfactant, glacial acetic acid and sodium chloride. […] of the lysed cell suspension from each well is added to 8 ml of diluent. Each sample is read with a Coulter counter (ZBI model). The activity of each sample is measured as a percentage of the controls and the data is reported as ID50, that is the molar quantity of drug required to kill 50% of the tumor cells."}, "Streptococcus faecalis": {"system": "Streptococcus faecalis", "assay": "agar plate paper-disc inhibition zone screening", "assay_type": "cell-based", "details": "Enterococcus faecalis; Dose 3.0 mg/ml; read-out: Inhibition Zone Diameter mm (Dose mg/ml) S. Faecalis", "summary_of_the_method": "(§1)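 Read-out: diameter (mm) of the inhibition zone around 12.7 mm paper discs after overnight (18-20 h) incubation at 37°C. Discs carried compound at 3,000-10 mcg/ml in alcohol, DMSO or DMF, final solvent <10%. Seeded agar trays used saline-suspended cells adjusted to 20-35% transmittancy.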"}, "Aerobacter aerogenes": {"system": "Aerobacter aerogenes", "assay": "agar plate paper-disc inhibition zone screening", "assay_type": "cell-based", "details": "Klebsiella aerogenes, read-out: Inhibition Zone Diameter mm (Dose mg/ml) A. Aerogenes", "summary_of_the_method": "as §1"}, "Bacillus subtilis": {"system": "Bacillus subtilis", "assay": "agar plate paper-disc inhibition zone screening", "assay_type": "cell-based", "details": "read-out: Inhibition Zone Diameter mm (Dose mg/ml) B. Subtilis", "summary_of_the_method": "as §1"}, "Escherichia coli": {"system": "Escherichia coli", "assay": "agar plate paper-disc inhibition zone screening", "assay_type": "cell-based", "details": "read-out: Inhibition Zone Diameter mm (Dose mg/ml) E. Coli", "summary_of_the_method": "as §1"}, "[2]": {"system": "lymphocytic leukemia P388", "assay": "in vivo lymphocytic leukemia P388 test", "parameters": "species or system mice", "details": "Mus musculus, P388, ip, 720 h, two single doses four days apart, read-out: T/C × 100 (Percent); for response vs control in vivo at 3.12 mg/kg: P388, Dose 3.12 mg/kg intraperitoneally; for response vs control in vivo at 6.25 mg/kg: P388, Dose 6.25 mg/kg intraperitoneally", "summary_of_the_method": "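CD2F mice (6–7 per group) were inoculated intraperitoneally with P388 leukemia ascitic cells. Compounds were then given i.p. as two doses four days apart at various levels. Survival over 30 days was expressed as treated/control time ratio, efficacy criterion T/C×100 >125%.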"}, "Penicillium avellaneum": {"system": "Penicillium avellaneum", "assay": "agar plate paper-disc inhibition zone screening", "assay_type": "cell-based", "details": "Hamigera avellanea; Dose 3.0 mg/ml; read-out: Inhibition Zone Diameter mm (Dose mg/ml) P. Avellaneum", "summary_of_the_method": "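Mycelia and spores from a six-day 28°C agar culture, suspended in saline with 0.05% Tween 80 at 20% transmittancy, were seeded into molten agar trays. Compounds at 3,000, 1,000, 500, 100 and 10 mcg/ml (solvent <10%) were applied on 12.7 mm paper discs. After at least 20-24 h incubation, inhibition zone diameter was measured in mm.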"}}, "data": [{"smiles": "CN1CCN(c2ccc3c4c(nn3CCNCCO)-c3c(O)ccc(O)c3C(=O)c24)CC1", "values": [{"measurement": "IC50", "setting": "[1]", "value": 540, "unit": "nM"}]}, {"smiles": "CN(C)CCn1nc2c3c(c(NCCNCCO)ccc31)C(=O)c1c(O)ccc(O)c1-2", "values": [{"measurement": "IC50", "setting": "[1]", "value": 180, "unit": "nM"}]}, {"smiles": "O=C1c2cccc(O)c2-c2nn(CCNCCO)c3ccc(NCCNCCO)c1c23", "values": [{"measurement": "IC50", "setting": "[1]", "value": 1100, "unit": "nM"}]}, {"smiles": "CNCCNc1ccc2c3c(nn2CCNCCO)-c2cccc(O)c2C(=O)c13", "values": [{"measurement": "IC50", "setting": "[1]", "value": 27, "unit": "nM"}]}, {"smiles": "NCCNc1ccc2c3c(nn2CCN)-c2c(O)ccc(O)c2C(=O)c13", "note": "[7,10-(OH)2; (CH2)2NH2·2HCl; NH(CH2)2NH2]", "values": [{"measurement": "IC50", "setting": "[1]", "value": 910, "unit": "nM"}]}, {"smiles": "CN(C)CCCn1nc2c3c(c(NCCCN)ccc31)C(=O)c1c(O)ccc(O)c1-2", "note": "[7,10-(OH)2; (CH2)3NMe2·2HCl; NH(CH2)3NH2]", "values": [{"measurement": "IC50", "setting": "[1]", "value": 350, "unit": "nM"}]}, {"smiles": "CN(CCO)CCn1nc2c3c(c(NCCNCCO)ccc31)C(=O)c1c(O)ccc(O)c1-2", "values": [{"measurement": "IC50", "setting": "[1]", "value": 450, "unit": "nM"}]}, {"smiles": "CN(C)CCn1nc2c3c(c(NCCN)ccc31)C(=O)c1c(O)ccc(O)c1-2", "note": "[7,10-(OH)2; (CH2)2NMe2·2HCl; NH(CH2)2NH2]", "values": [{"measurement": "IC50", "setting": "[1]", "value": 140, "unit": "nM"}]}, {"smiles": "NCCCNc1ccc2c3c(nn2CCN)-c2c(O)ccc(O)c2C(=O)c13", "values": [{"measurement": "IC50", "setting": "[1]", "value": 850, "unit": "nM"}]}, {"smiles": "CCN(CC)CCn1nc2c3c(c(NCCNC)ccc31)C(=O)c1c(O)ccc(O)c1-2", "note": "[Example 31, 2-[2-(Diethylamino)ethyl]-7,10-dihydroxy-5-[[2-(methylamino)ethyl]amino]anthra[1,9-cd]pyrazol-6(2H)-one]", "values": [{"measurement": "zone of inhibition at 3000 µg/mL", "setting": "Streptococcus faecalis", "value": 14, "unit": "mm"}, {"measurement": "zone of inhibition at 500 µg/mL", "setting": "Aerobacter aerogenes; Dose 0.5 mg/ml", "value": 16, "unit": "mm"}, {"measurement": "zone of inhibition at 1000 µg/mL", "setting": "Bacillus subtilis; Dose 1.0 mg/ml", "value": 17, "unit": "mm"}, {"measurement": "zone of inhibition at 500 µg/mL", "setting": "Escherichia coli; Dose 0.5 mg/ml", "value": 16, "unit": "mm"}, {"measurement": "response vs control in vivo at 3.12 mg/kg", "setting": "[2]", "value": 154, "unit": "%"}, {"measurement": "response vs control in vivo at 6.25 mg/kg", "setting": "[2]", "value": 163, "unit": "%"}, {"measurement": "response vs control in vivo at 12.5 mg/kg", "setting": "[2]; P388, Dose 12.5 mg/kg intraperitoneally", "value": 191, "unit": "%"}, {"measurement": "response vs control in vivo at 25 mg/kg", "setting": "[2]; P388, Dose 25 mg/kg intraperitoneally", "value": 219, "unit": "%"}, {"measurement": "response vs control in vivo at 50 mg/kg", "setting": "[2]; P388, Dose 50 mg/kg intraperitoneally", "value": 172, "unit": "%"}, {"measurement": "zone of inhibition at 3000 µg/mL", "setting": "Penicillium avellaneum", "value": 0, "unit": "mm"}]}, {"smiles": "CN(C)CCNCCNc1ccc2c3c(nn2CCNCCO)-c2c(O)ccc(O)c2C(=O)c13", "note": "[Example 63]", "values": [{"measurement": "zone of inhibition at 3000 µg/mL", "setting": "Streptococcus faecalis", "value": 16, "unit": "mm"}, {"measurement": "zone of inhibition at 1000 µg/mL", "setting": "Aerobacter aerogenes; Dose 1.0 mg/ml", "value": 14, "unit": "mm"}, {"measurement": "zone of inhibition at 3000 µg/mL", "setting": "Bacillus subtilis; Dose 3.0 mg/ml", "value": 18, "unit": "mm"}, {"measurement": "zone of inhibition at 1000 µg/mL", "setting": "Escherichia coli; Dose 1.0 mg/ml", "value": 15, "unit": "mm"}, {"measurement": "response vs control in vivo at 3.12 mg/kg", "setting": "[2]", "value": 152, "unit": "%"}, {"measurement": "response vs control in vivo at 6.25 mg/kg", "setting": "[2]", "value": 169, "unit": "%"}, {"measurement": "zone of inhibition at 3000 µg/mL", "setting": "Penicillium avellaneum", "value": 0, "unit": "mm"}]}]}
